The target in the assay is T1, mAChR M1 (UniProt P08482).
T1 sequence (P08482 1-460): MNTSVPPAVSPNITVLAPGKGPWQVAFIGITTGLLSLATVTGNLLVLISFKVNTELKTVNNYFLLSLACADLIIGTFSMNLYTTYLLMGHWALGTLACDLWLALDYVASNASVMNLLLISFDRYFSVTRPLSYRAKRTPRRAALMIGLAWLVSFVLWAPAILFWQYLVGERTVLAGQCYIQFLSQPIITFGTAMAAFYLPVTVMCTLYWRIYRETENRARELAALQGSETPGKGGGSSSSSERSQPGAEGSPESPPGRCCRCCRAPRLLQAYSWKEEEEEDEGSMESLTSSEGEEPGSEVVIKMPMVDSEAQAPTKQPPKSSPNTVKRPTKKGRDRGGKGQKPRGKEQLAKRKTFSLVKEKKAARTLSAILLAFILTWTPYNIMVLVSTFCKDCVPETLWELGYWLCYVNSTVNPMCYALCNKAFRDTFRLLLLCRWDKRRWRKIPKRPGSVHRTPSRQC
Kind of assay: mAChR M1 cell-based functional assay (calcium mobilization, Fluo-4, FDSS). The settings on record: for Efficacy (% ACh maximum at 30 μM): maximal calcium flux response from curve fit or response at 30 μM compound, as % of the EC80 ACh response; for EC50: positive allosteric modulation of EC20 acetylcholine response, CHO-K1 cells expressing mAChR M1, read-out: Potency (EC50).

Some results are limits rather than exact numbers.

As a reminder, the EC50 is the concentration needed to bring the measured effect to its halfway point. As to `Cc1noc(C)c1-c1cccc(Cn2cc(S(=O)(=O)CC(=O)Nc3ccccn3)c3c(F)cc(F)cc32)c1` [compound 17, 2-((1-(3-(3,5-dimethylisoxazol-4-yl)benzyl)-4,6-difluoro-1H-indol-3-yl)sulfonyl)-N-(pyridin-2-yl)acetamide], the “Efficacy (% ACh maximum at 30 μM)” value is given as 42% and the EC50 came out at 3.4 µM.

With `[N-]=[N+]=Nc1cccc(Cn2cc(S(=O)(=O)CC(=O)Nc3ccccn3)c3c(F)cc(F)cc32)c1` [compound 13, 2-((1-(3-azidobenzyl)-4,6-difluoro-1H-indol-3-yl)sulfonyl)-N-(pyridin-2-yl)acetamide], the “Efficacy (% ACh maximum at 30 μM)” value is 53% and the EC50 was determined as 2.8 µM.

Consider `Cc1cc(NC(=O)CS(=O)(=O)c2cn(Cc3cccc(-c4cccnc4)c3)c3cc(F)cc(F)c23)no1` [compound 8, 2-((4,6-difluoro-1-(3-(pyridin-3-yl)benzyl)-1H-indol-3-yl)sulfonyl)-N-(5-methylisoxazol-3-yl)acetamide], for which the “Efficacy (% ACh maximum at 30 μM)” value is 68% and the EC50 came to 2.4 µM.

For the compound `Cc1cc(NC(=O)CSc2cn(Cc3ccccc3Cl)c3ccccc23)no1` [compound 42, 2-({1-[(2-chlorophenyl)methyl]-1H-indol-3-yl}sulfanyl)-N-(5-methyl-1,2-oxazol-3-yl)acetamide], the EC50 was greater than 10 µM.

Consider `Cc1cc(NC(=O)CS(=O)(=O)c2cn(Cc3ccc(F)c(-c4cc[nH]n4)c3)c3ccccc23)no1` [compound 58, 2-(1-{[4-fluoro-3-(1H-pyrazol-3-yl)phenyl]methyl}-1H-indole-3-sulfonyl)-N-(5-methyl-1,2-oxazol-3-yl)acetamide], for which the EC50 is greater than 10 µM.

In the case of `O=C(CS(=O)(=O)c1cn(Cc2cccc(-c3ccnc(F)c3)c2)c2cc(F)cc(F)c12)Nc1ccccn1` [compound 20, 2-((4,6-difluoro-1-(3-(2-fluoropyridin-4-yl)benzyl)-1H-indol-3-yl)sulfonyl)-N-(pyridin-2-yl)acetamide], the “Efficacy (% ACh maximum at 30 μM)” value worked out at 36% and the EC50 worked out at 3.5 µM.
